From patent US6525001B1, “Substituted pyrimidine and pyridine herbicides” (Mid-American Commercialization Corporation, priority 1997, dated 2003)

Assays:
Type in all cases: in vivo
Design in all cases: key: 0 is no effect; 10 is complete control
[1] = test system: bamyardgrass (Echinochloa crus-galli); test: Test B flood test
Method in brief: (§1)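 Each value is a visual injury score relative to controls, with 10 meaning complete control and 0 no effect. Evaluation took place twelve to sixteen days after the 2-leaf-stage plants were treated and kept in the greenhouse.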

[2] = test system: smallflower flatsedge (Cyperus difformis); test: Test B flood test
Method in brief: as §1

[3] = test system: duck salad (Heteranthera limosa); test: Test B flood test
Method in brief: as §1

[4] = test system: rice (Oryza sativa); test: Test B flood test
Method in brief: as §1

[5] = test system: purple nutsedge (Cyperus rotundus); test: Test B pre-/postemergence
Excerpt: (§2) Seeds of bedstraw (Galium aparine), blackgrass (Alopecurus myosuroides), broadleaf signalgrass (Brachiaria decumbens), cocklebur (Xanthium strumarium), corn (Zea mays), crabgrass (Digitaria sanguinalis), giant foxtail (Setaria faberii), lambsquarters (Chenopodium album), momingglory (Ipomoea hederacea), pigweed (Amaranthus retroflexus), rape (Brassica napus), soybean (Glycine max), sugar beet (Beta vulgaris), velvetleaf (Abutilon theophrasti), wheat (Triticum aestivum), wild oat (Avena fatua) and purple nutsedge (Cyperus rotundus) tubers were planted and treated preemergence with test chemicals formulated in a non-phytotoxic solvent mixture which included a surfactant.
(§3) At the same time, these crop and weed species were also treated with postemergence applications of test chemicals formulated in the same manner. Plants ranged in height from 2 to 18 cm (1- to 4-leaf stage) for postemergence treatments. Plant species in the flood test consisted of rice (Oryza sativa), smallflower flatsedge (Cyperus difformis), duck salad (Heteranthera limosa) and bamyardgrass (Echinochloa crus-galli) grown to the 2-leaf stage for testing. Treated plants and controls were maintained in a greenhouse for twelve to sixteen days, after which all species were compared to controls and visually evaluated. Plant response ratings, summarized in Table B, are based on a scale of 0 to 10 where 0 is no effect and 10 is complete control. A dash (−) response means no test result.

[6] = test system: sugar beet (Beta vulgaris); test: Test B pre-/postemergence
Excerpt: as §2, §3

[7] = test system: cocklebur (Xanthium strumarium); test: Test B pre-/postemergence
Excerpt: as §2, §3

[8] = test system: broadleaf signalgrass (Brachiaria decumbens); test: Test B pre-/postemergence
Excerpt: as §2, §3

[9] = test system: soybean (Glycine max); test: Test B pre-/postemergence
Excerpt: as §2, §3

[10] = test system: momingglory (Ipomoea hederacea); test: Test B pre-/postemergence
Excerpt: as §2, §3

[11] = test system: wild oat (Avena fatua); test: Test B pre-/postemergence
Excerpt: as §2, §3

[12] = test system: blackgrass (Alopecurus myosuroides); test: Test B pre-/postemergence
Excerpt: as §2, §3

[13] = test system: rape (Brassica napus); test: Test B pre-/postemergence
Excerpt: as §2, §3

[14] = test system: giant foxtail (Setaria faberii); test: Test B pre-/postemergence; details: for Plant response rating, Giant foxtail: Postemergence; for Giant foxtail plant response rating: Preemergence
Excerpt: as §2, §3

[15] = test system: crabgrass (Digitaria sanguinalis); test: Test B pre-/postemergence
Excerpt: as §2, §3

[16] = test system: corn (Zea mays); test: Test B pre-/postemergence
Excerpt: as §2, §3

[17] = test system: pigweed (Amaranthus retroflexus); test: Test B pre-/postemergence
Excerpt: as §2, §3

[18] = test system: bedstraw (Galium aparine); test: Test B pre-/postemergence
Excerpt: as §2, §3

[19] = test system: wheat (Triticum aestivum); test: Test B pre-/postemergence
Excerpt: as §2, §3

[20] = test system: velvetleaf (Abutilon theophrasti); test: Test B pre-/postemergence
Excerpt: as §2, §3

[21] = Rate 62 g/ha, Postemergence (flood test)
[22] = Rate 125 g/ha, Postemergence, flood test
[23] = Rate 250 g/ha, Postemergence (flood test species)

## COC(=O)C(c1cccc(C(F)(F)F)c1)c1nc(-c2ccc(C(F)(F)F)cc2)ncc1C (racemic) [Compound 18]
[1]; [21]
  Plant response rating, Barnyardgrass: 2
[1]; [22]
  Plant response rating, Barnyardgrass: 1
[1]; [23]
  Plant response rating, Barnyardgrass: 2
[2]; [21]
  Plant response rating, S. Flatsedge: 9
[2]; [22]
  Plant response rating, S. Flatsedge: 1
[2]; [23]
  Plant response rating, S. Flatsedge: 2
[3]; [21]
  Plant response rating, Ducksalad: 1
[3]; [22]
  Plant response rating, Ducksalad: 2
[3]; [23]
  Plant response rating, Ducksalad: 2
[4]; [21]
  Plant response rating, Rice: 1
[4]; [22]
  Plant response rating, Rice: 0
[4]; [23]
  Plant response rating, Rice: 0
[5]; Rate 62 g/ha, Postemergence
  Plant response rating, Nutsedge: 0
[5]; Rate 62 g/ha, Preemergence
  Nutsedge plant response rating: 0
[5]; Rate 125 g/ha, Postemergence
  Plant response rating, Nutsedge: 0
[5]; Rate 125 g/ha, Preemergence
  Nutsedge plant response rating: 0
[5]; Rate 250 g/ha, Postemergence
  Plant response rating, Nutsedge: 0
[5]; Rate 250 g/ha, Preemergence
  Plant response rating, Nutsedge: 0
[6]; Rate 62 g/ha, Postemergence
  Plant response rating, Sugarbeets: 7
[6]; Rate 62 g/ha, Preemergence
  Sugarbeets plant response rating: 3
[6]; Rate 125 g/ha, Postemergence
  Plant response rating, Sugarbeets: 7
[6]; Rate 125 g/ha, Preemergence
  Sugarbeets plant response rating: 6
[6]; Rate 250 g/ha, Postemergence
  Plant response rating, Sugarbeets: 9
[6]; Rate 250 g/ha, Preemergence
  Plant response rating, Sugarbeets: 6
[7]; Rate 62 g/ha, Postemergence
  Plant response rating, Cocklebur: 6
[7]; Rate 125 g/ha, Postemergence
  Plant response rating, Cocklebur: 7
[7]; Rate 250 g/ha, Postemergence
  Plant response rating, Cocklebur: 8
[7]; Rate 250 g/ha, Preemergence
  Plant response rating, Cocklebur: 0
[8]; Rate 62 g/ha, Postemergence
  Plant response rating, B. signalgrass: 2
[8]; Rate 62 g/ha, Preemergence
  B. signalgrass plant response rating: 0
[8]; Rate 125 g/ha, Postemergence
  Plant response rating, B. signalgrass: 2
[8]; Rate 125 g/ha, Preemergence
  B. signalgrass plant response rating: 1
[8]; Rate 250 g/ha, Postemergence
  Plant response rating, B. signalgrass: 3
[8]; Rate 250 g/ha, Preemergence
  Plant response rating, B. signalgrass: 2
[9]; Rate 62 g/ha, Postemergence
  Plant response rating, Soybean: 3
[9]; Rate 62 g/ha, Preemergence
  Soybean plant response rating: 0
[9]; Rate 125 g/ha, Postemergence
  Plant response rating, Soybean: 4
[9]; Rate 125 g/ha, Preemergence
  Soybean plant response rating: 0
[9]; Rate 250 g/ha, Postemergence
  Plant response rating, Soybean: 6
[9]; Rate 250 g/ha, Preemergence
  Plant response rating, Soybean: 0
[10]; Rate 62 g/ha, Postemergence
  Plant response rating, Morningglory: 3
[10]; Rate 62 g/ha, Preemergence
  Morningglory plant response rating: 1
[10]; Rate 125 g/ha, Postemergence
  Plant response rating, Morningglory: 8
[10]; Rate 125 g/ha, Preemergence
  Morningglory plant response rating: 4
[10]; Rate 250 g/ha, Postemergence
  Plant response rating, Morningglory: 8
[10]; Rate 250 g/ha, Preemergence
  Plant response rating, Morningglory: 6
[11]; Rate 62 g/ha, Postemergence
  Plant response rating, Wild oats: 3
[11]; Rate 62 g/ha, Preemergence
  Wild oats plant response rating: 2
[11]; Rate 125 g/ha, Postemergence
  Plant response rating, Wild oats: 5
[11]; Rate 125 g/ha, Preemergence
  Wild oats plant response rating: 3
[11]; Rate 250 g/ha, Postemergence
  Plant response rating, Wild oats: 5
[11]; Rate 250 g/ha, Preemergence
  Plant response rating, Wild oats: 5
[12]; Rate 62 g/ha, Postemergence
  Plant response rating, Blackgrass: 2
[12]; Rate 62 g/ha, Preemergence
  Blackgrass plant response rating: 0
[12]; Rate 125 g/ha, Postemergence
  Plant response rating, Blackgrass: 2
[12]; Rate 125 g/ha, Preemergence
  Blackgrass plant response rating: 0
[12]; Rate 250 g/ha, Postemergence
  Plant response rating, Blackgrass: 2
[12]; Rate 250 g/ha, Preemergence
  Plant response rating, Blackgrass: 1
[13]; Rate 62 g/ha, Postemergence
  Plant response rating, Rape: 4
[13]; Rate 62 g/ha, Preemergence
  Rape plant response rating: 0
[13]; Rate 125 g/ha, Postemergence
  Plant response rating, Rape: 7
[13]; Rate 125 g/ha, Preemergence
  Rape plant response rating: 0
[13]; Rate 250 g/ha, Postemergence
  Plant response rating, Rape: 9
[13]; Rate 250 g/ha, Preemergence
  Plant response rating, Rape: 0
[14]; Rate 62 g/ha
  Plant response rating, Giant foxtail: 1
  Giant foxtail plant response rating: 0
[14]; Rate 125 g/ha
  Plant response rating, Giant foxtail: 1
  Giant foxtail plant response rating: 0
[14]; Rate 250 g/ha
  Plant response rating, Giant foxtail: 1
[15]; Rate 62 g/ha, Postemergence
  Plant response rating, Crabgrass: 1
[15]; Rate 62 g/ha, Preemergence
  Crabgrass plant response rating: 0
[15]; Rate 125 g/ha, Postemergence
  Plant response rating, Crabgrass: 2
[15]; Rate 125 g/ha, Preemergence
  Crabgrass plant response rating: 0
[15]; Rate 250 g/ha, Postemergence
  Plant response rating, Crabgrass: 3
[15]; Rate 250 g/ha, Preemergence
  Plant response rating, Crabgrass: 6
[16]; Rate 62 g/ha, Postemergence
  Plant response rating, Corn: 2
[16]; Rate 62 g/ha, Preemergence
  Corn plant response rating: 0
[16]; Rate 125 g/ha, Postemergence
  Plant response rating, Corn: 2
[16]; Rate 125 g/ha, Preemergence
  Corn plant response rating: 0
[16]; Rate 250 g/ha, Postemergence
  Plant response rating, Corn: 2
[16]; Rate 250 g/ha, Preemergence
  Plant response rating, Corn: 0
[17]; Rate 62 g/ha, Postemergence
  Plant response rating, Redroot pigweed: 6
[17]; Rate 62 g/ha, Preemergence
  Redroot pigweed plant response rating: 0
[17]; Rate 125 g/ha, Postemergence
  Plant response rating, Redroot pigweed: 6
[17]; Rate 125 g/ha, Preemergence
  Redroot pigweed plant response rating: 3
[17]; Rate 250 g/ha, Postemergence
  Plant response rating, Redroot pigweed: 9
[17]; Rate 250 g/ha, Preemergence
  Plant response rating, Redroot pigweed: 7
[18]; Rate 62 g/ha, Postemergence
  Plant response rating, Bedstraw: 7
[18]; Rate 62 g/ha, Preemergence
  Bedstraw plant response rating: 0
[18]; Rate 125 g/ha, Postemergence
  Plant response rating, Bedstraw: 8
[18]; Rate 125 g/ha, Preemergence
  Bedstraw plant response rating: 2
[18]; Rate 250 g/ha, Postemergence
  Plant response rating, Bedstraw: 9
[18]; Rate 250 g/ha, Preemergence
  Plant response rating, Bedstraw: 5
[19]; Rate 62 g/ha, Postemergence
  Plant response rating, Wheat: 1
[19]; Rate 62 g/ha, Preemergence
  Wheat plant response rating: 0
[19]; Rate 125 g/ha, Postemergence
  Plant response rating, Wheat: 3
[19]; Rate 125 g/ha, Preemergence
  Wheat plant response rating: 0
[19]; Rate 250 g/ha, Postemergence
  Plant response rating, Wheat: 3
[19]; Rate 250 g/ha, Preemergence
  Plant response rating, Wheat: 0
[20]; Rate 62 g/ha, Postemergence
  Plant response rating, Velvetleaf: 5
[20]; Rate 62 g/ha, Preemergence
  Velvetleaf plant response rating: 0
[20]; Rate 125 g/ha, Postemergence
  Plant response rating, Velvetleaf: 6
[20]; Rate 125 g/ha, Preemergence
  Velvetleaf plant response rating: 0
[20]; Rate 250 g/ha, Postemergence
  Plant response rating, Velvetleaf: 7
[20]; Rate 250 g/ha, Preemergence
  Plant response rating, Velvetleaf: 0
